Measurements: patent US7598419B2, “Compounds for modulating cell proliferation” (HSC Research and Development Limited Partnership, priority 2004, dated 2009)

What was measured:
[1] = test system: Z119 acute lymphoblastic leukemia cells; test: In vitro purging of Z119 acute lymphoblastic leukemia; format: cell-based, human; conditions: FIG. 15
Method: For the purging assay, the cells were resuspended in complete medium with or without CR4 as indicated and incubated at 37° C., 5% CO2 for 0-5 hours. Cells were then washed thoroughly with medium to remove the CR4, resuspended and plated in 1 ml volumes, in the absence of exogenous growth factors, into 35 mm petri dishes (Nunc, Gibco) containing alpha MEM (Gibco) plus 20% FCS (Cansera Rexdale, ON.) in 0.9% (vol/vol) methylcellulose (Fluka, Switzerland). Cultures were set at 37° C., 5% CO2 in a humidified atmosphere. Colonies consisting of more than 20 cells were counted at 9 days or earlier using an inverted microscope.

[2] = test system: primary juvenile myelo-monocytic leukemia cells; test: Colony assay of primary JMML CD34+ cells in culture; format: cell-based; conditions: Homo sapiens, 288 h, colonies at 12 days, FIG. 6
Method: Heparinized bone marrow cells from a JMML patient were layered over Percoll (1.077 gm/ml) (Pharmacia Fine Chemical, Piscataway N.J.) and centrifuged at 400 g at 4° C. for 10 minutes to remove neutrophils and RBCs. Cells were further fractionated and purified on Miltenyi MS columns (Miltenyi Biotec GmbH, Germany) to acquire an early progenitor population of CD34^+ cells. The fractionated BM CD34^+ cells at a density of 1×10^4 cells/ml were cultured in IMDM (OCI, Toronto) containing 0.9% (vol/vol) methylcellulose supplemented with 30% FCS (Cansera Rexdale, ON.) with the indicated concentration of CR4. The culture mixture was plated in 1 ml volumes into 35 mm petri dishes and incubated at 37° C., 5% CO2 in a humidified atmosphere. Colonies consisting of more than 20 cells were counted at 12 days or earlier using an inverted microscope.

[3] = test system: OCI-LY2 lymphoma cells; test: Colony assay of OCI-LY2 cells in culture; format: cell-based; conditions: 120 h, colonies at 5 days, FIG. 7, read-out: inhibition of OCI-LY2 cell proliferation and survival
Method: OCI-LY2 cells were plated in 1 ml volumes, in the absence of exogenous growth factors, into 35 mm petri dishes (Nunc, Gibco) containing IMDM (OCI, Toronto) plus 20% human cord blood plasma in 0.9% (vol/vol) methylcellulose (Fluka, Switzerland) and the indicated doses of CR4. Cultures were set at 37° C., 5% CO2 in a humidified atmosphere. Colonies consisting of more than 20 cells were counted at 5 days or earlier using an inverted microscope.

[4] = test system: HuNS1 multiple myeloma cells; test: Colony assay of HuNS1 cells in culture; format: cell-based; conditions: colonies at 5-6 days, FIG. 19, read-out: inhibition of HuNS1 cell proliferation and survival
Method: HuNS1 cells were plated in 35 mm petri dishes (Nunc, Gibco) in 1 ml volumes at a density of 1×10^4 cells/ml, in the absence of exogenous growth factors, containing alpha MEM plus 20% FCS (Cansera, Rexdale Ont.), and 0.9% (vol/vol) methylcellulose (Fluka, Switzerland) and the indicated concentrations of CR4. Cell cultures were incubated in a humidified atmosphere at 37° C. with 5% CO2. Colonies containing more than 20 cells were scored, using an inverted microscope, at 5-6 days.

[5] = test system: Ly-MN lymphoma cells; test: Colony assay of Ly-MN cells in culture; format: cell-based; conditions: colonies at 5 days, FIG. 5
Method: Ly-MN cells were plated in 1 ml volumes, in the absence of exogenous growth factors, into 35 mm petri dishes (Nunc, Gibco) containing IMDM (OCI, Toronto) plus 20% human cord blood plasma in 0.9% (vol/vol) methylcellulose (Fluka, Switzerland) and the indicated concentrations of CR4. Cultures were set at 37° C., 5% CO2 in a humidified atmosphere. Colonies consisting of more than 20 cells were counted at 5 days or earlier using an inverted microscope.

[6] = test system: normal bone marrow cells; test: In vitro purging of normal bone marrow; format: cell-based, human
Method: Heparinized bone marrow cells were layered over Percoll (1.077 gm/ml) (Pharmacia Fine Chemical, Piscataway N.J.) and centrifuged at 400 g at 4° C. for 10 minutes to remove neutrophils and RBCs.
(§1) For the purging process, the cells were resuspended at 1×10^6/ml in complete medium with or without 50 μM CR4. The cells were incubated with the CR4 for two and a half hours at 37° C., 5% CO2. At the end of this period the cells were thoroughly washed in medium to remove CR4 and then cultured at 2×10^5 cells/ml in IMDM (OCI, Toronto) containing 0.9% (vol/vol) methylcellulose supplemented with 30% FCS (Cansera Rexdale, ON.) or normal human plasma, a cocktail of cytokines containing G-CSF (10 ng/ml, Amgen), IL-3 (40 U/ml, Immunex), MGF (50 ng/ml, Immunex), Erythropoietin (2 u/ml, Epprex) or TPO (10 ng/ml, Amgen) and 5×10^−5M β-2-mercaptoethanol. The culture mixture was plated in 1 ml volumes into 35 mm petri dishes and incubated at 37° C., 5% CO2 in a humidified atmosphere. All cultures were evaluated at 14 days for the number of BFU-E colonies (defined as aggregates of more than 500 hemaglobinized cells or, 3 or more erythroid subcolonies), CFU-C colonies (defined as granulocyte or monocyte-macrophage cells or both) and CFU-GEMM colonies (a mixed population comprising of all elements).
as §1, with “μM CR11.” for “μM CR4.”, “the tryrphostin” for “the CR4”, “for seven” for “for two and a half”, “remove CR11” for “remove CR4”, “methylcellulose supplementd” for “methylcellulose supplemented”, “500 hemoglobinized” for “500 hemaglobinized”

[7] = 50 μM, two and a half hours exposure, FIG. 14

N#C/C(=C\C=C\c1ccc(O)c(O)c1)C(=O)NCc1ccccc1 [CR4, (E,E)-2-(Benzylaminocarbonyl)-3-(3,4-dihydroxystyryl)acrylonitrile]
killing of Z119 cells after purging ([1]; 25 μM, 2.5 hours exposure): 85% | subsequent Z119 cell growth after purging ([1]; 25 μM, five hour exposure): complete ablation | inhibition of Z119 cells after purging ([1]; 50 μM, 2.5 hours exposure): complete inhibition | inhibition at 5 µM [2]: 80 to 90% | inhibition at 2.5 µM [3]: 90% | inhibition at 2.5 µM [4]: > 90% | concentration by which inhibition was effected [5]: 2.5 µM | inhibition of Ly-MN cell proliferation and survival ([5]; nanomolar doses): significantly inhibited | BFU-E colonies after purging [6, 7]: slight drop | CFU-C colony numbers after purging [6, 7]: increased significantly | colony formation of normal bone marrow after purging [6, 7]: did not result in significant inhibition | normal bone marrow growth and differentiation after purging ([6]; identical doses (25-50 μM) and times (2.5 to 5 hour)): unaffected
